# In patent US20250075278A1, “EPIGENTIC REGULATION AND CO-TARGETING APPROACHES OF PSMA IN PROSTRATE CANCER” (Fred Hutchinson Cancer Center, priority 2023, published 2025):
# “Also recorded” adds a separate entry of the source.
# Experiments:
# LuCaP 35CR xenografts = experiment: PSMA IHC of LuCaP 35CR PDX tumors grown in treated mice; assay type: in vivo; conditions: LuCaP 35CR PDX in castrated CB17SCID mice, 75 mg/kg/day, 21 days, vs 30% Captisol control
# Method: In vivo experiments. All surgical procedures were performed under isoflurane anesthesia. LuCaP 35CR tumors (1 mm3) were surgically implanted s.c. into castrated male CB17SCID mice (The Jackson Laboratory) (59). When tumors reached a volume between 150 mm3 and 200 mm3, mice were administered CUDC-907 (Curis Inc.), a combined pan-HDAC/PI3K inhibitor dissolved in 30% captisol (Thermo Fisher Scientific). Treated mice received 75 mg/kg/day for 5 days, followed by 2 days off treatment, repeated for a total of 21 days or until the diameter of the tumor reached 2 cm. The same volume of 30% captisol, in the same manner as described above, was used to treat the vehicle group. […]
# IHC staining. […] Immunocomplexes were detected using PV poly-HRP anti-mouse IgG (Leica Microsystems, PV6114) with DAB as the chromogen. […] Immunocomplexes were detected using the Biotin XX Tyramide SuperBoost kit (Invitrogen, B40931) per manufacturer's protocol with DAB as the chromogen. […] Immunocomplexes were detected using Tyramide Signal Amplification system from Thermo Fisher Scientific. […] Membranous PSMA expression was scored in a blinded manner by 2 pathologists, whereby the optical density level (“0” for no brown color, “1” for faint and fine brown chromogen deposition, and “2” for prominent chromogen deposition) was multiplied by the percentage of cells at each staining level, resulting in a total score range of 0-200. […]
# [1] = test system: DU145, LAPC4, and LuCaP 35CR CL; experiment: PSMA protein expression in cell line models treated with epigenetic modifiers (flow cytometry and fluorescence immunocytochemistry); assay type: cell-based; conditions: for PSMA expression after HDACi treatment: in vitro and in vivo
# Method: Cell lines and in vitro experiments. […] All drugs were diluted in DMSO.
# To this end, 3 cell line models (DU145, LAPC4, and LuCaP 35CR CL) were treated with the DNMTi decitabine and pan-HDACi (panobinostat, CUDC-907, vorinostat) and applied 2 orthogonal approaches (flow cytometry and fluorescence immunocytochemistry) and 2 separate monoclonal antibodies (3E6 and LNI-17) to measure PSMA protein expression.
Structure (SMILES),"PSMA expression in tumors (IHC, PSMA-positive cells) (LuCaP 35CR xenografts)",PSMA expression after HDACi treatment [1],"PSMA re-expression (density plot, FIG. 5H) ([1]; 10 μM, cell line not stated)"
COc1ccc(-c2nc(N3CCOCC3)c3sc(CN(C)c4ncc(C(=O)NO)cn4)cc3n2)cn1 [CUDC-907],significantly increased PSMA expression; also recorded: enhanced PSMA expression,significant upregulation of PSMA expression,–
O=C(CNc1cccc2c1C(=O)N(C1CCC(=O)NC1=O)C2=O)NCCCOc1ccc(NC(=O)c2ccc(CN(C(=O)c3ccc4c(c3)OCC(=O)N4)C3CC3)cc2)nc1 (stereo not shown) [MS159],–,–,PSMA re-expression
O=C(CCCCCCC(=O)Nc1ccccc1)NO [vorinostat],–,significant upregulation of PSMA expression,–
